# Entries after “also recorded” stand apart in the source; their conditions may differ.
# Assays:
# [1] = system: SV40-transformed mouse lymph node endothelial cells (SVEC4-10); experiment: Endothelial ROS production (H2DFF-DA assay); assay type: cell-based
# Experimental: SV40-transformed mouse lymph node endothelial cells (SVEC4-10 from ATCC) were obtained from LGC Promochem, France and grown in Dulbecco's Modified Eagle Medium (DMEM) supplemented with 20% neonatal calf serum (NCS; Dominique Dutscher) in 24 well plaques at 37° C. with 5% CO2. Confluent SVEC monolayers in 96 well plates were incubated with 25 MP/μl for up to 2 h. To determine ROS production, 5-(6-)Carboxy-2′,7′-difluorodihydrofluorescein diacetate (H2DFF-DA; 10 μM), was supplemented to the medium for the last 30 minutes, and fluorescence was read in an automated fluorescence plate reader. For erythrocyte adhesion experiments, MP-primed SVEC monolayers were washed and incubated with RBC suspensions in DMEM (1.10^6 RBC/ml). Supernatant cells were discarded after 30 min, and adherent cells were counted by phase contrast microscopy in 5 random fields per well (400×). All conditions were tested 3 to 6 times, in triplicates. In cell cycle analysis, SVEC were cultured up to 70% confluency, washed and placed in DMEM with 0.05% NCS with or without RBC MP. After 16 hours, SVEC were trypsinized, fixed overnight in ice-cold 70% ethanol-H20, and incubated in 0.05% Triton X100, 100 μg/ml RNase A plus 50 μg/ml propidium iodide for 1 h in the dark. Total DNA content was determined by FACS. DNA profiles were divided as sub-G1 (apoptosis), G0/G1 (resting) and G2/M (proliferation) phases of the cell cycle. Data shown is the mean percentage of cells in each phase, in 3 to 6 independent experiments.
# [2] = system: wild type mouse erythrocytes; experiment: Echinocyte conversion and MP shedding by isolated erythrocytes (LORCA ektacytometer, microscopy, FACS), wild type; assay type: cell-based; conditions: for increase in MP shedding in wild type erythrocytes: peptides 25 μM, versus control peptides
# Experimental: (§1) Mouse blood was obtained through retro-orbital sinus puncture, mixed with anti-coagulant heparin buffer (5 UI/ml), and collected on citrated tubes. Blood diluted 1:1 with PBS (Gibco-Life Sciences) was placed onto histopaque-1083 (Sigma) density gradients for centrifugation (600 g, 25 minutes). Erythrocyte pellets were resuspended, washed in DMEM and stored for up to 4 hours at room temperature. Erythrocyte surface CD47 expression was assessed by FACS. Fresh RBC were washed and blocked with PBS-BSA 5% for 30 min and immunoreacted with mouse-specific fluoroisothiocyanate (FITC)-coupled anti-CD47 monoclonal antibody (clone mIAP301; BD Biosciences, Le Pont de Claix, France), or matched irrelevant IgG2aκ isotype for 45 min in 2% PBS-BSA. Erythrocytes were washed in PBS-BSA 2% prior to FACS analysis. Erythrocyte phenotypes were analyzed by […] electronic microscopy. Briefly, mouse erythrocytes were fixed with glutaraldehyde 1% and paraformaldehyde 4%, dehydrated and embedded in Epon™ epoxy resin. Sections contrasted with uranyl acetate and lead citrate were examined with a JEOL JEM 1010 microscope. Average apparent spicule number was determined by direct counting in 80 to 120 cells per condition.
# (§2) To trigger MP shedding, erythrocyte were suspended in polyvinylpyrrolidone (31 mPa.s) and placed in a rotating type LORCA ektacytometer (R&R Mechatronics, Hoorn, The
# (§3) Netherlands) in the absence or presence of TSP1 (25 μg/ml), or TSP1-derived peptides 4N1-1 or 4N1-2 (25 μM). Shear rate was applied according to the builder's program (1500 s^−1; 2.5 minutes). Erythrocytes were immediately separated and supernatant PS^+ MP quantified by FACS. Concentrated MP stocks were generated from 10 to 20 ml of supernatant from erythrocytes suspended in RPMI-1640 (4.10^6/ml) and treated with 4N1-1. Suspensions were centrifuged at 400 g for 15 min to discard cells, and ultracentrifuged at 20500 g for 45 min to pellet MP, which were resuspended in filtered (0.2 μm) DMEM and stored at −80° C. MP concentrations were determined as previously described (20). Briefly, MP were labeled with 2 μl FITC-conjugated annexin-V (Roche Diagnostics, France) diluted in 100 μl reaction buffer with 5 mM CaCl2. CaCl2 was omitted in negative controls. MP were analyzed on a Coulter EPICS XL flow cytometer (Beckman Coulter). MP were identified in forward light scatter (FSc) and side-angle light scatter (SSc) intensity dot plots set at logarithmic gain, as events of 0.1-1 μm in diameter. MP-size events were analyzed in FL/FSC fluorescence dot plots to determine annexin-V labeling. MP concentration was determined with respect to calibrated fluorescent microbeads (Flowcount). To determine erythrocyte origin, MP were double labeled with rat PE-Cy7-coupled mouse-specific anti-Ter119 antibody (Biolegend via Ozyme, France), or matched irrelevant IgG2bκ isotype.
# SAD mouse erythrocytes = experiment: Echinocyte conversion and MP shedding by isolated erythrocytes (LORCA ektacytometer, microscopy, FACS), SAD; assay type: cell-based; conditions: for raise in MP shedding in SAD erythrocytes: peptides 25 μM, versus control peptides
# Experimental: as §1, §2, §3
# SAD mice = experiment: Circulating PS+ MP in platelet-free plasma by FACS (annexin-V labeling), SAD mice; assay type: in vivo, mouse; conditions: injected to mice, compared with whole TSP1
# Experimental: We characterized the induction of VOC in SAD transgenic mice (18, 19) according to our previously published method, in response to the intravenous administration of TSP1 (1 mg/kg), TSP1-derived peptides 4N1-1 or 4N1-2, or purified erythrocyte MP. Briefly, mice were anesthetized with isoflurane and monitored to prevent any cardiorespiratory depression. Mice were shaved and placed in the decubitus position on a heating blanket (38° C.). We used a Vivid 7 echograph (GE Medical Systems®, Horten, Norway) equipped with a 12-MHz linear transducer (12 L). […] A pulsed Doppler spectrum was recorded and peak systolic, end-diastolic and time-average mean BFV were measured in the renal artery, with Doppler beam angle correction. To calculate cardiac output, spatial flow profiles were analyzed in parasternal long-axis B-mode images of the pulmonary artery and BFV were measured as above. […] Circulating MP were quantified by FACS.
# Netherlands) in the absence or presence of TSP1 (25 μg/ml), or TSP1-derived peptides 4N1-1 or 4N1-2 (25 μM). […] Erythrocytes were immediately separated and supernatant PS^+ MP quantified by FACS. […] MP concentrations were determined as previously described (20). […] MP were analyzed on a Coulter EPICS XL flow cytometer (Beckman Coulter). […] MP-size events were analyzed in FL/FSC fluorescence dot plots to determine annexin-V labeling. […]
# Mesenteric arteries = experiment: Microvascular dilation of perfused mesenteric resistance arteries (pressure myograph); set-up: species or system mouse
# Experimental: Mesenteric arteries were removed from terminally anesthetized mice and placed them in ice-cold physiological salt solution (PSS). 4-6 arterial segments from each mouse were used. A segment of mesenteric artery was cannulated and mounted in a video-monitored perfusion system as described (21). Arterial segments were bathed in a 5 ml organ bath containing a PSS maintained at pH 7.4, with pO2 and pCO2 of 160 mm Hg and 37 mm Hg, respectively. Arterial diameter was continuously recorded by video (Living System Instrumentation Inc., Burlington, Vt.). Pressure and flow rates could be changed independently. Diameter changes were measured in each segment when the intraluminal pressure was set at 75 mm Hg in order to measure dilation. Artery viability was tested with potassium-rich solution ([…]; PSS). The endothelium was considered functional when 80% relaxation was obtained with 10^−6 acetylcholine (ACH), after phenylephrine (PE)-induced preconstriction (50% of maximal contraction with KCl 80 mM). A cumulative concentration-response curve to ACH (10^−7-10^−4 M) was constructed after preconstriction. Sodium nitroprusside (SNP, 100 μM) was tested after the ACH curve. Intraluminal flow was then increased to 21 μl/minute and MP were injected in the vessel. A new cumulative concentration-response curve to ACH after was constructed after new PE-induced preconstriction. […]
# SAD transgenic mice = experiment: Vaso-occlusive crises in mice: renal artery blood flow velocity by Echo-Doppler, cardiac output, renal histology; assay type: in vivo, mouse; conditions: SAD RBC MP pre-incubated with annexin-V and washed, 300.10^3 MP/mouse
# Experimental: We characterized the induction of VOC in SAD transgenic mice (18, 19) according to our previously published method, in response to the intravenous administration of TSP1 (1 mg/kg), TSP1-derived peptides 4N1-1 or 4N1-2, or purified erythrocyte MP. Briefly, mice were anesthetized with isoflurane and monitored to prevent any cardiorespiratory depression. Mice were shaved and placed in the decubitus position on a heating blanket (38° C.). We used a Vivid 7 echograph (GE Medical Systems®, Horten, Norway) equipped with a 12-MHz linear transducer (12 L). The ultrasound probe was placed on the left side of the abdomen for examination of renal arteries, or in left lateral decubitus for cardiac output acquisition with transducer on the chest. Data were transferred on-line to an EchoPAC ultrasound image analysis workstation (GE Medical Systems®). Two-Dimensional ultrasound imaging of the abdomen in left-sided longitudinal B-mode allowed kidney width and height measurements. Color-coded blood flow detection by Doppler enabled renal arteries to be localized. A pulsed Doppler spectrum was recorded and peak systolic, end-diastolic and time-average mean BFV were measured in the renal artery, with Doppler beam angle correction. To calculate cardiac output, spatial flow profiles were analyzed in parasternal long-axis B-mode images of the pulmonary artery and BFV were measured as above. The following formula was applied: CO=[(V^mean·60)·(π·(Dpa/2^2)], where CO is the cardiac output in ml/minute, V^mean is the mean time-averaged BFV in cm/s and Dpa is the pulmonary artery diameter in cm. Kidney sizes and BFV were determined by the same investigator, as means of 5 to 8 measurements. Repeatability for cardiac output measurements was verified. We controlled and confirmed that kidney size was similar between SAD and wild type mice. After sacrifice, kidneys were dissected, dehydrated, mounted in paraffin, sectioned and stained by Masson trichrome. Vascular congestion was observed by phase-contrast microscopy, as large erythrocyte aggregates occluding kidney capillaries and larger vessels. In some experiments, TSP1 (1 mg/kg) or control BSA (1 mg/kg) were injected. After 5 minutes, mice were terminally anesthetized by pentobarbital overdose. Whole blood was collected through cardiac puncture, centrifuged (400 g, 15 minutes) to eliminate erythrocytes and leukocytes, and double centrifuged (12500 g, 5 minutes) to eliminate platelets with minimal activation. Supernatants were considered platelet-free plasma (PFP). Circulating MP were quantified by FACS.
# We evaluated the concept that TSP1 influences VOC during SCD in vivo. We used SAD transgenic mice that express a mutated human hemoglobin β-chain known to cause sickle cell formation and sensitivity to VOC (18, 19).
# [3] = endothelial PKC activity inhibited, 1 μM
# [4] = scanning electron microscopy, after peptide treatment
# [5] = endothelial NOS blocked, L-NAME 100 μM, enantiomer D-NAME as control
molecule,measurement,setting,value
c1ccc2c(c1)[I+]c1ccccc1-2 [DPI],ROS generation induced by SAD RBC MP,"[1]; endothelial NADPH oxydase blocked, 10 μM, 30 minutes",prevented
Cn1cc(C2=C(c3cn(CCCSC(=N)N)c4ccccc34)C(=O)NC2=O)c2ccccc21 [Ro-31-8220],ROS generation induced by SAD RBC MP,[1]; [3],prevented
4NGG: Mutated control peptide RFYGGMWK (SEQ ID NO:3) devoid of the VVM motif (4NGG),increase in MP shedding in wild type erythrocytes,[2],no effect
same,raise in MP shedding in SAD erythrocytes,SAD mouse erythrocytes,no effect
Cn1c2ccccc2c2c3c(c4c5ccccc5n(CCC#N)c4c21)C(=O)NC3 [Gö-6976],ROS generation induced by SAD RBC MP,[1]; [3],prevented
"4N1-1: Synthetic TSP1 carboxyterminal peptide RFYVVMWK (SEQ ID NO:1), CD47 agonist (4N1-1)",echinocytosis: change in wild type echinocytes,[2]; peptide 25 μM,doubling
same,spicule numbers in healthy wild type erythrocytes,[2]; [4],not in healthy wild type erythrocytes
same,effect on sickle cells,"SAD mouse erythrocytes; SAD erythrocytes, TSP1 or peptide",did not affect sickle cells
same,increase in spicule numbers in SAD RBC,SAD mouse erythrocytes; [4],20%
same,increase in SAD echinocytes,"SAD mouse erythrocytes; under shear, TSP1 (25 μg/ml) or peptide (25 μM), vs control",50%
same,effects on circulating PS+ MP after injection of the peptide,SAD mice,comparable to whole TSP1
CC1(C)CC(O)CC(C)(C)N1[O] [Tempol],effect alone on vessel diameter,"Mesenteric arteries; Tempol alone, vs control",−5 % vessel diameter
same,reduction of the deleterious effects of SAD RBC MP on vasodilation,"Mesenteric arteries; vessel treated 10 μM, 30 minutes, vs MP alone",−50%
COC(=O)[C@H](N)CCCN=C(N)N[N+](=O)[O-] [D-NAME],ROS generation induced by SAD RBC MP,[1]; [5],had no effects
COC(=O)[C@@H](N)CCCNC(=N)N[N+](=O)[O-] [L-NAME],ROS generation induced by SAD RBC MP,[1]; [5],entirely inhibited
COc1cc(C(C)=O)ccc1O [apocynin],ROS generation induced by SAD RBC MP,"[1]; endothelial NADPH oxydase blocked, 100 μM, 30 minutes",prevented
4N1-2: Synthetic truncated control peptide RFYVVM (SEQ ID NO:2) (4N1-2),increase in MP shedding in wild type erythrocytes,[2],no effect
same,raise in MP shedding in SAD erythrocytes,SAD mouse erythrocytes,no effect
"annexin-V: Recombinant protein that binds externalized phosphatidylserine in a calcium dependent manner (protein, UniProt P08758 2-320, looked up) Annexin A5: AQVLRGTVTDFPGFDERADAETLRKAMKGLGTDEESILTLLTSRSNAQRQEISAAFKTLFGRDLLDDLKSELTGKFEKLIVALMKPSRLYDAYELKHALKGAGTNEKVLTEIIASRTPEELRAIKQVYEEEYGSSLEDDVVGDTSGYYQRMLVVLLQANRDPDAGIDEAQVEQDAQALFQAGELKWGTDEEKFITIFGTRSVSHLRKVFDKYMTISGFQIEETIDRETSGNLEQLLLAVVKSIRSIPAYLAETLYYAMKGAGTDDHTLIRVMVSRSEIDLFNIRKEFRKNFATSLYSMIKGDTSGDYKKALLLLCGEDD",VOC parameters after injection of annexin-V-saturated SAD RBC MP,SAD transgenic mice,failed to modify VOC parameters
same,VOC parameters after injection of annexin-V-saturated SAD RBC MP,SAD transgenic mice; listed as Annexin-V,abrogated the induction of VOC
same,ROS generation induced by SAD RBC MP,"[1]; MP PS previously saturated with recombinant annexin-V, 1 μg/ml for 1 hour",entirely inhibited; also recorded: prevented

# Reference: patent publication US10139420B2, “Methods for treating vaso-occlusive crisis using non-modified annexin V” (ISNERM (Institut National de la Sante et de la Recherche …, priority 2011, dated 2018)
